Where no end group is shown, it is not given here.
How the values were obtained:
[1] = test system: IL-1β production in murine peritoneal macrophages (PECs); assay: IL-1β secretion (ELISA) by primed, ATP-pulsed peritoneal macrophages (PECs); assay type: cell-based, mouse; details: for IL-1β production in response to NECA and CGS21680: with PKA inhibition
Description: (§1) FIGS. 1A-1J illustrate the finding that adenosine stimulates IL-1β production in NLRP3 inflammasome-dependent manner. Murine peritoneal macrophages (PECs) were obtained from wild type (WT) mice (FIGS. 1A-1D, 1F-1I), Il1r−/− (FIG. 1E) or Nlrp3−/−, ASC−/−, P2xr7−/−, or Caspase-1−/− mice (FIG. 1J) and were primed with LPS for 16 hours. FIG. 1A: This was followed by treatment for 1 hour with adenosine (Ad, 100 μM), adenosine deaminase inhibitor (EHNA, 10 μM), adenosine deaminase (ADA, 10 U ml^−1), ATP diphosphohydrolase (Apyrase, 10 U ml^−1), or erythro-9-(2-hydroxy-3-nonyl) adenine (EHNA, 10 μM) (FIGS. 1B, 1F-1J)). Pan adenosine agonist (NECA, 1 μM, 10 μM) (FIGS. 1C, 1E), or (FIGS. 1D, 1I) by NECA for 1 and 6 hours, and were then pulsed with ATP for 20 min. Enzyme-linked immunosobent assay (ELISA) of IL-1β, TNF-α, IL-10 and IFN-γ secretion were measured in cell supernatants after pulsing with ATP for 5 hours (FIGS. 1A, 1C-1E, 1J) or indicated time-course (FIGS. 1B, 1G-1I). LDH assay was performed after pulsing with ATP as indicated time-course (FIG. 1F). Data are expressed as the mean±SD from at least three independent experiments. *p<0.05 determined by Student's t-test.
C57BL/6 mice were purchased from the National Cancer Institute. ASC−/−, Caspase-1−/−, Nlrp3−/− and P2xr7−/− mice have been described (Rock et al., 2010, Annu Rev Immunol. 28:321-42). A2ora2a flox/flox mice and LysMcre mice were purchased from Jackson Laboratories. HIF-1a flox/flox mice were kindly provided by Dr. Ruslan M Medzhitov (Yale University). 7- to 12-week-old males with a variety of genetic manipulations were used in most experiments. The number of mice in each experimental group was chosen based on previous experience with these experimental models. Mouse peritoneal macrophages (PECs) were isolated by peritoneal lavage 3 days after intraperitoneal injection of 4% thioglycollate solution (B2551, Fluka,). Cells were plated at the density of 3×10^6 cells in 12-well dishes and non-adherent cells were removed after 3 h. Cells primed overnight with 100 ng/ml LPS or 10 ng/ml Pam3CSK4 were treated with various chemicals and followed stimulation. Cells were cultured in DMEM medium complemented with 10% FBS, penicillin/streptomycin and L-glutamine. Mouse bone marrow derived macrophages were isolated from bone marrow cells, and were differentiated for 7 days in complete RPMI-1640 medium supplemented with 2 mM L-glutamine, 100 U/ml penicillin, 100 μg/ml streptomycin, 50 μM 2-mercaptoethanol (all from Invitrogen), 10% heat-inactivated FBS and 20 ng/ml M-CSF (PeproTech). Kupffer cells (KC) were isolated by the density gradient separation of Optiprep (Sigma), and then plates were gently washed and media was replenished after seeding cells for 2 hours to raise KC purity.
Primed PECs were both pulsed for 20 min with 5 mM ATP or 10 μM nigericin, and left untreated until culture supernatants were collected. Secretion of IL-1β was determined by enzyme-linked immunoabsorbent assay (ELISA; R&D Systems).

[2] = test system: PECs; assay: LDH release (cell death) assay in PECs; assay type: cell-based; details: LPS + ATP treated PECs
Description: as §1, with “Pan adenosine agonist (NECA, 1 μM, 10 μM) (FIGS. 1C, 1E), or (FIGS. 1D, 1I) by NECA for 1 and 6 hours, and were then pulsed with ATP for 20 min.” left out, “LDH assay was performed after pulsing with ATP as indicated time-course (FIG. 1F).” left out
FIGS. 2A-2H illustrate the finding that adenosine mediates increase in IL-1β via the A2A receptor and amplifies signal 1 and signal 2 pathways. […] Data are expressed as the mean±SD from at least three independent experiments Immunoblots shown are representative results from at least three independent experiments. p<0.05 determined by Student's t-test.

[3] = test system: TNF-α, IL-10 and IFN-γ secretion; assay: ELISA of other cytokines in PEC supernatants; assay type: cell-based, mouse; details: LPS + ATP, adenosine deaminase inhibition
Description: as §1

[4] = test system: IL-1β production in murine peritoneal macrophages (PECs); assay: IL-1β secretion (ELISA) by primed, ATP-pulsed peritoneal macrophages (PECs); assay type: cell-based, mouse; details: CpG-B and ATP
[5] = test system: Il1b and other genes in PECs; assay: Quantitative real-time RT-PCR gene expression in PECs; assay type: cell-based, mouse; details: LPS primed PECs, NECA
Description: (§2) FIGS. 3A-3I illustrate the finding that adenosine supersedes LPS induced tolerance and increases IL-1β production by upregulating transcription of pro-IL-1β via cAMP-PKA pathway. PECs were used in all of the following experiments. FIG. 3A: Primed (pri) with LPS (100 ng/ml) for 16 hours followed by stimulation (stim) with LPS (100 ng/ml), or NECA (10 μM) or CGS21680 (10 μM) in the presence or absence of LPS (100 ng/ml) for 6 hours. FIG. 3B: Treated with forskolin for 6 hours as indicated doses with and without LPS priming FIG. 3C: Treated with or without NECA (10 μM), CGS21680 (10 μM) or db-cAMP (200 μM) for 6 hours. FIG. 3D: LPS primed and treated with NECA or CGS21680 in the presence and absence of SQ22536, H89 and PKi. FIG. 3E: Primed with LPS for 16 hours and treated with ATP for 20 min, followed by CGS 21680 in the presence or absence of the adenylyl cyclase and PKA inhibitors SQ22536 and H-89. FIG. 3F: Primed with LPS and treated with or without NECA (10 μM) or db-cAMP (200 μM) for 6 hours. FIG. 3G: Treated with or without CGS21680 (10 μM) for 3 hours, and transcription was stopped by adding […] actinomycin D, and RNA samples collected at indicated times-points. FIG. 3H: LPS primed PECs obtained from wild type or A2AR-cKO mice were stimulated with NECA (10 μM) for 6 hours. The cells were harvested and RNA isolated after each treatment and the gene expression of Il1b and other genes as indicated quantified by real-time PCR using specific primers. FIG. 3I: Primed with LPS for 16 hours and treated with ATP for 20 min, followed by CGS 21680 in the presence or absence of SQ22536 or H-89 Immunoblot analysis of the proIL-1β caspase-1 in cell lysate was performed by specific […] and anti caspase-1 p10 antibodies (FIGS. 3C, 3E-3F, 3I). Data are expressed as the mean±SD from three independent experiments Immunoblots shown are representative results from at least three independent experiments. *p<0.05 determined by Student's t-test.
FIGS. 9A-9H illustrate changes in expression of cytokines and tissue repair genes in peritoneal macrophages in response to adenosine agonists. LPS naive or LPS primed PECs were stimulated with LPS (100 ng ml^−1), CGS21680 (10 μM) or NECA (10 μM) at different time points as indicated. The cells were harvested and RNA isolated after each treatment, and the gene expression of ProIL-1β (Il1b) (FIG. 9A), IL-6 (Il6) (FIG. 9B), IL-4 (Il4) (FIG. 9C), TNF-α (tnfa) (FIG. 9D), TIMP-1 (Timp1) (FIG. 9E), VEGF (vegf) (FIG. 9F), PGK-1 (Pgk1) (FIG. 9G), GLUT-1 (Slc2a1) (FIG. 9H) quantified by real-time PCR using each specific gene primer set as listed. Data are expressed as the mean±SD from three independent experiments. *p<0.05 determined by Student's t-test.
Total RNA was extracted using TRIZOL reagent (Invitrogen), and cDNA was generated with an oligo (dT) primer and the Superscript II system (Invitrogen, USA) followed by analysis using LightCycler 480 system (Roche). q-PCR was performed for Il1b using commercial primer-probe sets (Applied Biosystems Inc.) with DNA master Mix (Roche). Expression of GAPDH was used to standardize the samples, and the results were expressed as a ratio relative to control; q-PCR was performed for tnfa, 116, Txnip, Nlrp3, Hif1a, Timp1, using LightCycler 480 SYBR Green I master mix (Roche). Results were normalized based on the expression of β-actin.

[6] = test system: active caspase-1 / pro-IL-1β in PECs; assay: Western blot of caspase-1 and pro-IL-1β in PECs; assay type: cell-based, mouse; details: for CGS21680 induced increase in LPS/ATP induced active caspase-1: LPS/ATP + CGS21680 with inhibitor; for active (cleaved) caspase-1: in response to LPS/ATP
Description: FIGS. 2A-2H illustrate the finding that adenosine mediates increase in IL-1β via the A2A receptor and amplifies signal 1 and signal 2 pathways. FIG. 2A: LPS primed PECs were treated with NECA (10 μM) in the presence or absence of […] different adenosine receptor antagonists for A1 (DPCPX, 10 nM), A2A (ZM 241385, 10 μM), A2B (MRS1706, 10 nM), A3 (MRS1523, 5 μM), or their combinations for 1 hour, and pulsed with ATP for 20 min. FIGS. 2A-2B: A2A receptor specific agonist (CGS21680) and antagonist ZM 241385 increase and block IL-1β production respectively. […] FIG. 2D: PEC's from A2A receptor deficient cells have low IL-1β production, which is not increased by NECA and CGS 21680. FIG. 2E: CGS21680 increases induction of Il1b mRNA expression, and this was decreased in A2A receptor deficient cells. FIG. 2F: Loss of the A2A receptor in macrophages results in much lower levels of Il1b protein A expression in response to LPS. FIG. 2G: CGS21680 and […] increases and decreases production of cleaved caspase-1, respectively. FIG. 2H: The production of cleaved caspase-1 is decreased in A2A receptor deficient macrophages. Data are expressed as the mean±SD from at least three independent experiments Immunoblots shown are representative results from at least three independent experiments. p<0.05 determined by Student's t-test.
as §2
Liver tissue lysates or PECs were lysed in RIPA buffer (10 mM phosphate buffer pH 7.4, 150 mM NaCl, 1% NP-40, 0.5% sodium deoxycholate, 0.1% SDS) supplemented with complete protease inhibitor cocktail (Roche) and 2 mM dithiothreitol. Lysates were resolved in 4-12% Tris-glycine gradient gels (Invitrogen) and transferred to nitrocellulose (Invitrogen) by electro-blotting. The following antibodies were used: rabbit anti-caspase-1 p10 (SC-514, Santa Cruz), goat anti-mouse IL-1β (BAF401, R&D Systems), Rabbit antimouse HIF-1α (NB100-449, Novus Biologicals, Littleton, Colo.).

[7] = LPS-primed PECs pulsed with ATP
[8] = in the absence of either LPS or ATP

Molecule: CCCCCC[C@@H]([C@@H](C)O)n1cnc2c(N)ncnc21 (racemic) [EHNA, erythro-9-(2-hydroxy-3-nonyl) adenine]
- IL-1β production, time course ([1]; LPS + ATP, time course): sustained increase
- IL-1β production [1, 7]: significant increase
- IL-1β production [1, 8]: did not result in any detectable IL-1β
- IL-1β production by LPS and ATP ([1]; macrophages lacking caspase-1, NLRP3, ASC or P2x7 receptor): did not result in significant production of IL-1β
- LDH (lactate dehydrogenase) release, cell death [2]: did not show correlation with the secretion of IL-1β
- production of IFN-γ [3]: increase
- production of IL-10 [3]: no effect
- production of TNF-α [3]: reduction
- IL-1β production [4]: increase

Molecule: COC(=O)c1ccc(O)c(NC(=O)COc2ccc(C34CC5CC(CC(C5)C3)C4)cc2)c1 [CAY10585]
- adenosine agonist induced IL-1β production ([1]; LPS primed PECs, ATP pulse): significantly decrease
- adenosine agonist induced Il1b expression [5]: significantly decrease

Molecule: O=S(=O)(NCCNC/C=C/c1ccc(Br)cc1)c1cccc2cnccc12 [H-89]
- IL-1β production in response to NECA and CGS21680 [1]: significantly reduced
- CGS21680 induced increase in LPS/ATP induced active caspase-1 [6]: reduced

Molecule: Nc1ncnc2c1ncn2C1CCCO1 (stereo not drawn) [SQ22536]
- increase in IL-1β induced by CGS21680 and EHNA ([1]; with adenylate cyclase inhibitor): block
- CGS21680 induced increase in LPS/ATP induced active caspase-1 [6]: reduced

Molecule: Nc1nc(NCCc2ccc(O)cc2)nc2nc(-c3ccco3)nn12 [ZM241385]
- NECA-increased IL-1β production ([1]; LPS + ATP + NECA with receptor antagonist): inhibited
- IL-1β production stimulated by CGS21680, NECA and EHNA ([1]; LPS + ATP with antagonist): inhibited
- IL-1β production [1, 7]: block
- CGS21680 induced increase in LPS/ATP induced active caspase-1 [6]: inhibited
- active (cleaved) caspase-1 [6]: decreased
- active (cleaved) caspase-1 ([6]; listed as ZM241395): decreases

Molecule: Nc1ncnc2c1ncn2[C@@H]1O[C@H](CO)[C@@H](O)[C@H]1O [adenosine]
- IL-1β production [1, 7]: significantly increased
- IL-1β production [1, 8]: did not result in any detectable IL-1β

Molecule: CCCC(=O)Nc1ncnc2c1ncn2[C@@H]1O[C@@H]2COP(=O)([O-])O[C@H]2[C@H]1OC(=O)CCC.[Na+] [db-cAMP, N6,2′-O-Dibutyryladenosine 3′,5′-cyclic monophosphate sodium salt]
- up-regulation of Pro-IL-1β ([6]; 6 hours, FIG. 3C): induced up-regulation
- pro-IL1β protein levels ([6]; cells from A2AR-cKO mice): increase

Molecule: PKI 14-22 amide (SGRTGRRNA-NH2; UniProt P61925 14-22, looked up, fragment)
- IL-1β production in response to NECA and CGS21680 [1]: significantly reduced

B1: adenosine deaminase: Adenosine deaminase obtained from Worthington Biochemical corporation (protein, UniProt P56658 2-363, looked up)
Adenosine deaminase: AQTPAFNKPKVELHVHLDGAIKPETILYYGRKRGIALPADTPEELQNIIGMDKPLSLPEFLAKFDYYMPAIAGCREAVKRIAYEFVEMKAKDGVVYVEVRYSPHLLANSKVEPIPWNQAEGDLTPDEVVSLVNQGLQEGERDFGVKVRSILCCMRHQPSWSSEVVELCKKYREQTVVAIDLAGDETIEGSSLFPGHVKAYAEAVKSGVHRTVHAGEVGSANVVKEAVDTLKTERLGHGYHTLEDATLYNRLRQENMHFEVCPWSSYLTGAWKPDTEHPVVRFKNDQVNYSLNTDDPLIFKSTLDTDYQMTKNEMGFTEEEFKRLNINAAKSSFLPEDEKKELLDLLYKAYGMPSPASAEQCL
- IL-1β production [1, 7]: significant reduction

— patent publication US10624917B2, “Compositions and methods useful for treating or preventing liver diseases or disorders, and promoting weight loss” (YALE UNIVERSITY, priority 2014, dated 2020)
